# Data taken from patent publication US9398761B2, “Transgenic animal model of mood disorders” (BRAINCO BIOPHARMA, S.L., priority 2012, dated 2016).
# Entries after “also recorded” stand apart in the source; their conditions may differ.
# Test system: wild-type (WT) and PTN transgenic (TG) mice
# Assay: Novelty Suppressed Feeding Test after chronic fluoxetine treatment
# Format: in vivo, mouse
# Settings: 4 weeks; for Latency to feed, treated versus untreated: fluoxetine in drinking water 160 mg/l, one-way ANOVA on rank-transformed data
# Procedure: Novelty suppressed feeding test assesses anxiety and/or depression by measuring the latency of an animal to approach and eat food in a novel environment following chronic treatment with antidepressants. Mice (WT=14 and TG=14) were separated in two experimental groups: Without fluoxetine treatment and with fluoxetine treatment. The Fluoxetine was delivered ad libitum in the drinking water at a concentration of 160 mg/l (approximately doses of 20-25 mg/kg/day) during 4 weeks. Mice were weighed and food was removed from their cage. Twenty four hr after removal of food, mice were transferred to the testing room, placed in a clean holding cage and allowed to habituate for at least 30 min. The testing apparatus consisted of a clear Plexiglas open-field (50×50×25 cm) under an aversive condition (100 lux luminosity). The floor was covered with 2 cm of corncob bedding. A small piece of mouse chow was placed in the center of the arena. At the start of the experiment, each mouse was placed in the corner of the testing area, and the time to the first feeding event was recorded. After all mice from a single cage were tested, mice were returned to their home cage. A longer latency to feed reflects an anxiety-like behaviour. […] Measurement of Latency to feed were rank-transformed (Conover and Iman, 1981) and subjected to a Two-way ANOVA having two levels of genotype (wild-type or WT and transgenic or TG) and two levels of treatment (without fluoxetine or −Flx and with fluoxetine or +Flx).
smiles,measurement,setting,value
CNCCC(Oc1ccc(C(F)(F)F)cc1)c1ccccc1 (stereo not shown) [Fluoxetine],"Sensitivity to the effect of fluoxetine, Tg compared with Wt","Novelty Suppressed Feeding Test, chronic treatment",more sensitive
same,"Latency to feed, treated versus untreated",TG (PTN-overexpressing) mice,significant difference; also recorded: reversed
same,"Latency to feed, main effect of treatment (two-way ANOVA)","WT and TG mice, fluoxetine in drinking water 160 mg/l (approx. 20-25 mg/kg/day), with vs without fluoxetine",significant
same,"Latency to feed, treated versus untreated",WT mice,No significant differences
